Measurements reported in PMC8329121 (Journal of Neuroimmune Pharmacology, 2021).
Numbering of substitutions follows the chain as printed.

Experiments:
[1] = target: T1, E2C-I159A/H547A (C90A/C306A/I159A/H547A) (Homo sapiens, UniProt Q01959, C306A/C90A/H547A/I159A); assay: MTSET assay, [3H]DA uptake in HEK293 cells; type: cell-based; conditions: 1 mM MTSET
T1 construct: expressed in transfected cells; host or cells: HEK293 cells, transient, pcDNA3.1+
T1 sequence (Q01959 1-620 C90A/I159A/C306A/H547A): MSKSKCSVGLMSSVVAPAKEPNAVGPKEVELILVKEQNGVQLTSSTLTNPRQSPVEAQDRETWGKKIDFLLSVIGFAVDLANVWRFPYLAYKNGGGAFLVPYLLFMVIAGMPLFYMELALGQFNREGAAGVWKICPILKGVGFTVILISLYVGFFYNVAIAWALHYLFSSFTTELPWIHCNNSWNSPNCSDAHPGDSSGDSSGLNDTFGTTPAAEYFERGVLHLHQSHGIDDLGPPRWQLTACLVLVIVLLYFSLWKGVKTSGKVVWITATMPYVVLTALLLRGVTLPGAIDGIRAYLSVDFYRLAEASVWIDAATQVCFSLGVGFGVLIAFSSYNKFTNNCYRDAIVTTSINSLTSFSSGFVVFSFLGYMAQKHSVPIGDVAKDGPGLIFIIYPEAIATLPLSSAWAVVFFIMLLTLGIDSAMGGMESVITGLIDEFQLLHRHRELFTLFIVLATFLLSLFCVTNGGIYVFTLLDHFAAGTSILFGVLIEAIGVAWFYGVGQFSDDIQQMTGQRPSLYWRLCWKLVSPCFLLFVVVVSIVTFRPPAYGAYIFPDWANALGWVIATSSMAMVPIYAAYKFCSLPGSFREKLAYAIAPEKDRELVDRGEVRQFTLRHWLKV
Excerpt: (§1) All mutants on hDAT were generated based on the predictions made using our computational model, as described previously using site-directed mutagenesis based on the wild-type hDAT (WT hDAT) sequence (NCBI, cDNA clone MGC: 164,608 IMAGE: 40,146,999) (Quizon et al. [2016]). The combination of hDAT mutations on Asp206 and His547 (Aspartic acid 206 to leucine and histidine 547 to alanine, D206L/H547A) were predicted to eliminate two hydrogen bonds between Tat and hDAT. In addition, the combination of mutations on Tyr88, Asp206, and His547 (tyrosine88 to phenylalanine and aspartic acid 206 to leucine and histidine 547 to alanine, Y88F/D206L/H547A) were predicted to eliminate three hydrogen bonds from the Tat-hDAT complex. Two extracellular cysteine90 and cysteine306 residues on WT hDAT were mutated to alanine as E2C hDAT (C90A/C306A hDAT), rendering the E2C hDAT MTSET-insensitive background (Pedersen et al. [2014]). A triple mutation of the two cysteine90 and 306 residues to alanine and […] to cysteine on WT hDAT was generated as E2C-I159C hDAT (C90A/C306A/I159C) for MTSET-sensitive construct. A combination of C90A/C306A/H547A was generated as E2C/H547A hDAT for MTSET-insensitive control for H547A. To determine whether H547A-enhanced DA transport is mediated by changing transporter conformation, two combinations of C90A/C306A/I159C/H547A and C90A/C306A/I159A/H547A were generated as E2C-I159C/H547A and E2C-I159A/H547A for positive and negative controls for MTSET sensitive background, respectively. Synthetic cDNA encoding hDAT subcloned into pcDNA3.1+ (provided by Dr. Haley E Melikian, University of Massachusetts) was used as a template to generate mutants using site-directed mutagenesis performed by GENEWIZ (South Plainfield, NJ). DNA sequencing was also performed by GENEWIZ to confirm the sequences of the mutant constructs. Plasmid DNA were propagated and purified using the Qiagen Hi-speed maxi prep plasmid DNA isolation kit (Qiagen, Valencia, CA, USA).
(§2) This assay was performed based on the previous report with minor modifications (Loland et al. [2004], [2008]). First, we generated five WT hDAT based plasmid construct for MTSET-insensitive or sensitive background as we described above. HEK293 cells were grown in poly-d-lysine coated plates at a density of 1 × 10^5 cells/cm^2 were transfected with different E2C- associated hDAT background constructs: E2C hDAT, E2C-I159C hDAT, E2C/H547A hDAT, E2C-I159C/H547A or E2C-I159A/H547A. Twenty-four hours after the transfection, cells were washed twice with 1× KRH buffer, and preincubated with or without the presence of 10 µM nomifensine (for non-specific uptake) and MTSET for 10 min at room temperature. MTSET at 1 mM final concentration was chosen based on a pilot study on optimizing MTSET concentrations (0.1, 0.5 or 1.0 mM). […] Because MTSET is easily hydrolyzed in solution, the amount needed for a 10 × stock was weighed out and dissolved in 1 × KRH buffer just right before adding to the assigned wells, for a 10-fold dilution (final concentration of 1 mM in final volume of 250 µl). […] Cells were immediately washed twice with ice-cold 1 × KRH buffer to terminate the reaction and were lysed rapidly with the addition of 1 % SDS. Cell lysates were collected after incubation for 1 h at room temperature and radioactivity was determined the next day.

[2] = target: T2, E2C-I159C/H547A (C90A/C306A/I159C/H547A) (Homo sapiens, UniProt Q01959, C306A/C90A/H547A/I159C); assay: MTSET assay, [3H]DA uptake in HEK293 cells; type: cell-based; conditions: 1 mM MTSET
T2 construct: expressed in transfected cells; host or cells: HEK293 cells, transient, pcDNA3.1+
T2 sequence (Q01959 1-620 C90A/I159C/C306A/H547A): T1 sequence (Q01959 1-620 C90A/I159A/C306A/H547A) with A159C
Excerpt: as §1, §2

C[N+](C)(C)CCSS(C)(=O)=O [MTSET, [2-(trimethylammonium)ethyl]-methanethiosulfonate]
inhibition of DA uptake relative to E2C ([1]; Fig. 8b): 31% | [3H]DA uptake in the presence of MTSET ([1]; HEK293, Fig. 8b): 59.7 ± 5.7 | further inhibition of [3H]DA uptake compared to E2C-I159C ([2]; Fig. 8b): 34% | inhibition of DA uptake relative to E2C ([2]; Fig. 8b): 65% | [3H]DA uptake in the presence of MTSET ([2]; HEK293, Fig. 8b): 30.4 ± 3.52
